The source made the active and inactive calls.
Key:
[1] = inhibitors of TRPM1-promoter reporter in SK-MEL-5 – cell-based, luciferase, dry powder, set 9, MITF inhibitor project, dose response (AID 651588); format: functional
[2] = cytotoxicity in MITF-independent A375 cells – cell-based, CellTiter-Glo luminescence, dry powder, set 4, counter-screen for MITF inhibitor project, dose response (AID 624364); format: functional; conditions: A-375;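 also: A375 melanoma cells are MITF independent so this is a counter screen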
[3] = growth inhibition of SK-MEL-5 melanoma cells – cell-based, CellTiter-Glo luminescence, dry powder, set 8, orthogonal assay for MITF inhibitor project, dose response (AID 651586); format: functional
[4] = MITF Orthogonal Assay: SK-MEL-5 CTG Assay Measured in Cell-Based System Using Plate Reader - 2084-02_Inhibitor_Dose_DryPowder_Activity_Set5.; format: functional
[5] = MITF Measured in Cell-Based System Using Plate Reader - 2084-01_Inhibitor_Dose_DryPowder_Activity_Set6.; format: functional
[6] = MITF Measured in Cell-Based System Using Plate Reader - 2084-01_Inhibitor_Dose_DryPowder_Activity_Set7.; format: functional
[7] = growth inhibition of yeast DHODH-expressing 3D7 parasites – SYBR Green, dry powder samples, dose response (AID 1159570); format: functional, cell-based;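 also: parasite growth measured after 72 hours of compound exposure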
[8] = toxicity to human HepG2 hepatoma cells – cell-based, plate reader, dry powder samples, cytotoxicity control, dose response (AID 1159569); format: functional;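 also: inhibitor potency with signal falling toward the positive control level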
[9] = P. falciparum Dd2 growth inhibitors, dose response, SYBR Green, cherry-picked samples (AID 1159567); format: functional, cell-based
[10] = Dd2 malaria parasite growth inhibition potency – SYBR Green, dry powder samples, dose response (AID 1159566); format: functional, cell-based;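 also: potency for growth inhibition with lower SYBR green DNA signal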
[11] = growth inhibition of PfATP4-mutant resistant parasites – NITD609-resistant line, SYBR Green, dry powder, dose response (AID 1159571); format: functional, cell-based;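 also: parasites synchronized at ring stage by sorbitol before testing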
[12] = antimalarial activity against Dd2 parasites – SYBR Green fluorescence, erythrocytes, dry powder, set 2, dose response (AID 1159574); format: functional, cell-based
[13] = biological target: Paired box protein Pax-8 (Homo sapiens, UniProt Q06710); assay: PAX8 transcriptional activity inhibition in RMG-I – RMG-I cells, luciferase, cherry-pick, dose response (AID 687027); format: functional, cell-based;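 also: luciferase reporter driven by Pax8 target thyroperoxidase promoter measured by SteadyGlo luminescence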
Chain of Paired box protein Pax-8 (Q06710 whole entry): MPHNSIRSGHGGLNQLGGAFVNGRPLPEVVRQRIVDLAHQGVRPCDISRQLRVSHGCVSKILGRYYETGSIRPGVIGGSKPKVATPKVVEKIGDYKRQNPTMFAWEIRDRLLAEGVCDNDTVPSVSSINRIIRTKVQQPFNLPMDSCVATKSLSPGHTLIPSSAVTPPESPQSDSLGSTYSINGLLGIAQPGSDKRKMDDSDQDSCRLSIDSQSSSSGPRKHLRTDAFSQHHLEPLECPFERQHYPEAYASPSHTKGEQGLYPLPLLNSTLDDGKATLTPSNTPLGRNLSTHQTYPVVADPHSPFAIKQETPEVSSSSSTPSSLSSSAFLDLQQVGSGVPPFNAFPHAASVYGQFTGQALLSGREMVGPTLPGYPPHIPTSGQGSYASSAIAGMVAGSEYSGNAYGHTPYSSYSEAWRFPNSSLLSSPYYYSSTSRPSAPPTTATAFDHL

[14] = A2780 cell killing – plate reader, dry powder samples, cytotoxicity control, dose response (AID 743046); format: functional, cell-based
[15] = OVCAR-3 cell viability loss – plate reader, dry powder samples, PAX8 inhibitor project, dose response (AID 743044); format: functional, cell-based
[16] = IGROV1 cell killing – plate reader, dry powder samples, PAX8 inhibitor project, dose response (AID 743043); format: functional, cell-based; conditions: IGROV-1
[17] = general cell-killing toxicity readout – plate reader, dry powder samples, cytotoxicity control for PAX8 inhibitor project, dose response (AID 743021); format: functional, cell-based
[18] = OVCAR8 cell viability loss – plate reader, dry powder samples, PAX8 project, dose response (AID 743197); format: functional, cell-based; conditions: OVCAR-8
[19] = biological target: NAD-dependent protein deacylase sirtuin-5, mitochondrial (Homo sapiens, UniProt Q9NXA8); assay: blockers of sirtuin-5 peptide desuccinylation – biochemical, fluorescence imaging, cherry-pick, set 6, dose response (AID 720597)
Chain of NAD-dependent protein deacylase sirtuin-5, mitochondrial (Q9NXA8 whole entry): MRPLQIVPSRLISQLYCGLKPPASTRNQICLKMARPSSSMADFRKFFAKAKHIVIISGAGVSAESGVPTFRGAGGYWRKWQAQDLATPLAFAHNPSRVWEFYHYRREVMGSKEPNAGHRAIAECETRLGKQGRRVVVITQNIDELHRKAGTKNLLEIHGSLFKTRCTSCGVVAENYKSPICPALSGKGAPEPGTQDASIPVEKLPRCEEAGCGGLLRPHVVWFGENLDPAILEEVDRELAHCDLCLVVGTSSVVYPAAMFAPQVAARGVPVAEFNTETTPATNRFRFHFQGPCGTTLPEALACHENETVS

[20] = viability loss in HepG2 liver cells – cell-based, ATP luminescence, cherry-pick, set 6, cytotoxicity control, dose response (AID 1053125); format: functional
[21] = biological target: Kallikrein-7 (Homo sapiens, UniProt P49862); assay: Fluorescence Intensity-based biochemical primary high throughput dose response assay to identify activators of kallikrein-7 (K7) zymogen.
Chain of Kallikrein-7 (P49862 whole entry): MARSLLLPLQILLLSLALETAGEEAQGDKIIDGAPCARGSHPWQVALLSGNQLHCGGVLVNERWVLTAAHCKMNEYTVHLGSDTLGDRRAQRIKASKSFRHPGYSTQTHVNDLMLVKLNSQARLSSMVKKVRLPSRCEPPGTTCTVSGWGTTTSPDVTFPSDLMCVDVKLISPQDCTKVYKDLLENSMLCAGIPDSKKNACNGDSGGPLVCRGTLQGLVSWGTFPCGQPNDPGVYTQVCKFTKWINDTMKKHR

## NC1=C(NS(=O)(=O)c2ccc(Br)s2)C(=O)c2ccccc2C1=O
[1]
  AC50: > 70 µM (inactive)
[2]
  AC50: > 70 µM (inactive)
[3]
  AC50: > 70 µM (inactive)
[4]
  AC50: > 70 µM (inactive)
[5]
  AC50: > 70 µM (inactive)
[6]
  AC50: 65.8 µM (active)

## C[C@@H]1CN([C@H](C)CO)S(=O)(=O)c2ccc(-c3ccncc3)cc2O[C@H]1CN(C)Cc1ccc(Oc2ccccc2)cc1
[7]
  AC50: 0.573 µM (active)
[8]
  AC50: 50 µM (active)
[9]
  AC50: 1.51 µM (active)
[10]
  AC50: 0.583 µM (active)
[11]
  AC50: 0.841 µM (active)

## COc1cccc(C#Cc2ccc([C@@H]3[C@H](CO)N4C(=O)CN(C(=O)Cc5ccccc5)C[C@@H]34)cc2)c1
[12]
  AC50: > 20 µM (inactive)

## C[C@H](CO)N1C[C@H](C)[C@H](CN(C)Cc2ccc(C(F)(F)F)cc2)OCCCC[C@H](C)Oc2ccc(NC(=O)Cc3ccccc3)cc2C1=O
[13]
  AC50: 6.42 µM (active)
[14]
  AC50: 49 µM (active)
[15]
  AC50: 35.4 µM (active)
[16]
  AC50: 25.6 µM (active)
[17]
  AC50: 69.3 µM (active)
[18]
  AC50: 67 µM (active)

## COCC(=O)Nc1ccc2c(c1)OC[C@@H](C)N(CCc1ccccc1)C[C@@H](C)[C@H](OC)CN(C)C2=O
[19]
  AC50: > 30 µM (inactive)

## CCOc1ccc2nc(NCCCNS(=O)(=O)c3ccc(F)cc3)c(C#N)cc2c1
[20]
  AC50: > 52 µM (inactive)

## Fc1ccc(-c2nc3cnccn3c2NC2CCCC2)cc1
[21]
  EC50: > 7.72 µM (active)

Reference: ChEMBL document CHEMBL1201862, “PubChem BioAssay data set” (2004)
